System: T1, Hno (6-hydroxynicotine oxidase), recombinant His-tagged
T1 construct: N-terminal His tag (pETDuet-1), E. coli BL21 (DE3); FAD-containing; about 50 kDa on SDS-PAGE
Experiment: UV-visible spectrophotometry at […] nm (6-hydroxypseudooxynicotine formation)
Format: biochemical, Agrobacterium tumefaciens
Details: 37 °C, pH 9.2, 100 mM glycine-NaOH buffer; O2 as electron acceptor; read-out: apparent K m

SMILES: CN1CCC[C@H]1c1ccc(O)nc1 [6-hydroxynicotine]
- Km: 67 ± 1 µM

Reference: publication PMC5713474, “Green route to synthesis of valuable chemical 6-hydroxynicotine from nicotine in tobacco wastes using genetically engineered Agrobacterium tumefaciens S33” (Biotechnology for Biofuels, 2017)
